System: PPARγ2 mRNA
Assay: PPARγ2 mRNA expression during adipocyte differentiation (real-time PCR)
Type: cell-based, mouse
Conditions: SFG-xbp1i cells, 50 μM rosiglitazone in induction medium
Description: From the cells subjected to differentiation, total RNA was isolated by chloroform extraction and ethanol precipitation (TRIzol Reagent, Invitrogen, Carlsbad, Calif.). Thereafter, the total RNA was used to synthesize cDNA by RT-PCR (M-MLV reverse transcriptase, Promega, MADISON, Wis.). Real-time PCR was performed using a fluorescent probe of SYBR Green (SYBR Green QPCR Master Mix (2×), TAKARA, JAPAN), with cDNA serving as a template. Relative mRNA expression levels were calculated using a comparative Ct method.
In this regard, XBP1(S) expression-knock-down 3T3-L1 precursor cells (SFG-xbp1i) were induced to differentiate into adipocytes in the presence of 0 or 50 μM rosiglitazone in an induction medium during which the relative expression levels of PPARγ2 mRNA were measured.

CN(CCOc1ccc(CC2SC(=O)NC2=O)cc1)c1ccccn1 (stereo not shown) [rosiglitazone]
expression level of PPARγ2 mRNA relative to absence of rosiglitazone: 20 times

Reference: US20110136108A1, “XBP1(S) Protein Acting as an Adipocyte Differentiation Marker Having a Facility to Regulate Differentiation into Adipocytes, and an Application Therefor” (CATHOLICE UNIVERSITY INDUSTRY ACADEMIC COOPERATION …, priority 2008, published 2011)
